Laboratory results published in ChEMBL document CHEMBL1145285, “Design and crystal structures of protein kinase B-selective inhibitors in complex with protein kinase A and mutants” (J Med Chem, 2005).

Legend:
[1] = Inhibition protein kinase A
[2] = Inhibition of protein kinase AB (PKB amino acid substitutions); format: protein assay
[3] = biological target: cAMP-dependent protein kinase catalytic subunit alpha (Bos taurus) (UniProt P00517); experiment: Binding constant for protein kinase AB3 (3 PKB amino acid substitutions)
[4] = biological target: cAMP-dependent protein kinase catalytic subunit alpha (Bos taurus) (UniProt P00517); experiment: Binding constant for protein kinase AB5 (5 PKB amino acid substitutions)

In the case of CN(C)c1ccc(O)c(C(=O)c2ccc(C(=O)N[C@@H]3CCCNC[C@H]3NC(=O)c3ccncc3)cc2)c1.Cl.Cl.Cl, the IC50 [1] is reported as 30 nM, the IC50 [2] is reported as 23 nM and the Kd [3] is reported as 41 nM.
Compound CC1(C)CCCNC1c1ccc(O)c(C(=O)c2ccc(C(=O)N[C@@H]3CCCNC[C@H]3NC(=O)c3ccncc3)cc2)c1F.Cl.Cl.Cl (stereo partly specified) has an IC50 [1] of 2400 nM, an IC50 [2] of 750 nM and a Kd [3] of 3770 nM. The Kd [4] was 260 nM.
Cl.Cl.Cl.O=C(N[C@@H]1CCCNC[C@H]1NC(=O)c1ccncc1)c1ccc(C(=O)c2cc(N3CCCCC3)ccc2O)cc1 showed an IC50 [1] of 400 nM, an IC50 [2] of 20 nM and a Kd [3] of 193 nM. The Kd [4] was 9 nM.
CC1(C)CCCN(c2ccc(O)c(C(=O)c3ccc(C(=O)N[C@@H]4CCCNC[C@H]4NC(=O)c4ccncc4)cc3)c2)C1.Cl.Cl.Cl gave an IC50 [1] of 1900 nM, an IC50 [2] of 20 nM and a Kd [3] of 77 nM. It also gave a Kd [4] of 8 nM.
In the case of CC1(C)CCN(c2ccc(O)c(C(=O)c3ccc(C(=O)N[C@@H]4CCCNC[C@H]4NC(=O)c4ccncc4)cc3)c2)CC1.Cl.Cl.Cl, the IC50 [2] is reported as 40 nM.
